Patent US6333338A, “Bispiperidines as antithrombotic agents” (Laboratoire L. Lafon, priority 1998, dated 2001)
Structures can show the parent of a compound that is named as a salt. Where two headings read alike, the source gives them in different places.

Columns and labels:
guinea pig platelets [1] = test: Ex vivo/vitro inhibition of platelet aggregation after administration via the gastric route in guinea pigs; design: species or system guinea pig (Dunkin-Hartley); settings: Cavia porcellus, Platelet, fasted guinea pigs
Procedure: A study of the inhibitory activity of the compounds of formula I on platelet aggregation was carried out in vitro, i.e. by direct contact of solutions of variable concentrations of the compounds with platelets freshly separated from a sample of total blood, taken under standardized conditions, from laboratory animals (guinea pigs) and from healthy human subjects who have not received any substances or drugs that might interfere with blood clotting. The anti-platelet-aggregating activity was also studied ex vivo/vitro, i.e. after administration of the substances claimed to guinea pigs to measure the intensity and duration of the anti-aggregating action induced by the fraction of the test product absorbed and circulating in the blood. Evaluation of the anti-platelet-aggregating activity of the compounds is carried out in the same guinea pigs as those mentioned above (Dunkin-Hartley strain). […] The allocation of the treatments to the animals is random. The blood is taken and then treated under the same conditions as those described above for the in vitro studies. The results of the inhibition of the platelet aggregation obtained for each test concentration make it possible to calculate the IC50 concentration of each test product and the kinetics of the inhibitory effect and its duration of action.

guinea pig platelets [2] = test: In vitro inhibition of collagen-induced platelet aggregation, guinea pig platelets (PRP); format: cell-based, guinea pig (male Dunkin-Hartley); settings: Cavia porcellus, Platelet, 0.05 h, collagen 1 μg/ml, 3 minutes of contact at 37° C.
Procedure: (§1) A study of the inhibitory activity of the compounds of formula I on platelet aggregation was carried out in vitro, i.e. by direct contact of solutions of variable concentrations of the compounds with platelets freshly separated from a sample of total blood, taken under standardized conditions, from laboratory animals (guinea pigs) and from healthy human subjects who have not received any substances or drugs that might interfere with blood clotting. The anti-platelet-aggregating activity was also studied ex vivo/vitro, i.e. after administration of the substances claimed to guinea pigs to measure the intensity and duration of the anti-aggregating action induced by the fraction of the test product absorbed and circulating in the blood.
Blood is taken by intracardiac puncture from male Dunkin-Hartley guinea pigs (weighing about 330 g), at a rate of 4.5 ml per 0.5 ml of trisodium citrate (concentration of the aqueous solution: 1.55%) in order to prevent all trace of clotting. The platelet-rich plasma (PRP) is obtained by centrifuging the tubes of total blood for 15 minutes at 150 g.
The PRPs are collected as "pools". The platelets contained in these pools are counted using a Coulter ZM haematology automatic device: if necessary, a dilution is carried out in order for the platelet concentration in the plasma to be between 200,000 and 400,000 platelets/mm^3. Simultaneously, other samples of these pools serve to prepare the platelet-poor plasma (PPP) by centrifugation at 1500 g for 15 minutes.
The kinetic study of the platelet aggregation is carried out by adding a collagen solution (1 μg/ml) to a volume of PRP, using a Chrono-log Corporation aggregometer (490-D1 or 560 VS) which uses an optical detection of the appearance of the thrombus.
The measurements of the aggregation inhibition are carried out after 3 minutes of contact at 37° C. with agitation.

human platelets = test: In vitro inhibition of collagen-induced platelet aggregation, human platelets (PRP); format: cell-based; settings: 0.05 h, collagen 5 μg/ml, 3 minutes of contact at 37° C., read-out: IC50 (M) in vitro, Man
Procedure: as §1
Venous blood is taken from a group of ten healthy human subjects of the same age, by puncture into a vein of the fold of the elbow and is collected in a glass tube containing aqueous 0.129 M sodium citrate solution (1 volume of citrate solution per 9 volumes of blood). Each tube is then centrifuged a first time at 20° C. and 100 g for 15 minutes in order to obtain the platelet-rich plasma (PRP); after removing this PRP, the tube is again centrifuged at 2000 g for 15 minutes in order this time to remove the platelet-poor plasma (PPP).
For each identified sample of PRP, the platelets are counted using a Coulter ZM counter. Each sample is then used to study the variation in inhibition of the platelet aggregation triggered by the addition of a Chromo-par Reagent collagen glucose solution from Coultronics (used at a concentration of 5 μg/ml) as a function of the addition of increasing concentrations of each compound in a range covering the interval 10^-8 M→10^-5 M, (example of concentrations: 10^-8 M, […], 6×10^-6 M, 4×10^-6 M, 2×10^-6 M, 10^-6 M, […], 10^-5 M). Beforehand, for each compound, an aqueous 10^-3 M solution is prepared. A control test intended to check the possible effect of the solvents (reference value) on the platelet aggregation is introduced into each measurement series, and is measured after 3 minutes of contact at 37° C. with agitation.
From the percentages of inhibition of the platelet aggregation measured for each concentration of each compound, the 50% inhibitory concentration (IC50) is calculated.

[3] = 1 h before blood sampling, read-out: % of g.r. inhibition guinea pig ex vivo, d = 10 mg/kg, 1 h
[4] = 1 h before blood sampling, read-out: % of g.r. inhibition guinea pig ex vivo, d = 150 mg/kg, 1 h
[5] = 2 h before blood sampling, read-out: % of g.r. inhibition guinea pig ex vivo, d = 150 mg/kg, 2 h
[6] = 2 h before blood sampling, read-out: % of g.r. inhibition guinea pig ex vivo, d = 10 mg/kg, 2 h

Row | SMILES | inhibition at 10 mg/kg (guinea pig platelets [1]; [3]) [%] | inhibition at 150 mg/kg (guinea pig platelets [1]; [4]) [%] | inhibition at 150 mg/kg (guinea pig platelets [1]; [5]) [%] | IC50 (guinea pig platelets [2]) [nM] | IC50 (human platelets) [M] | inhibition at 10 mg/kg (guinea pig platelets [1]; [6]) [%]
1 | O=C(O)CC(NC(=O)CNC(=O)C(CCC1CCNCC1)CCC1CCNCC1)c1ccc2c(c1)OCO2 (centres unmarked) [Example 5, 3-(1,3-Benzodioxol-5-yl)-3-{[2-({4-(4-piperidyl)-2-[2-(4-piperidyl)ethyl]butanoyl}amino)acetyl]amino}-propanoic Acid Dihydrochloride] | -15 | -63 | -66 | 2000 | 2.8e-07 | –
2 | CC(C)c1ccc(C(CC(=O)O)NC(=O)CNC(=O)C(CCC2CCNCC2)CCC2CCNCC2)cc1 (centres unmarked) [Example 6, 3-(4-Isopropylphenyl)-3-{[2-({4-(4-piperidyl)-2-[2-(4-piperidyl)ethyl]butanoyl}amino)acetyl]amino}propanoic Acid Dihydrochloride] | – | -9 | -4 | 14000 | 2.7e-06 | –
3 | COc1ccc(C(CC(=O)O)NC(=O)CNC(=O)C(CCC2CCNCC2)CCC2CCNCC2)cc1OC (centres unmarked) [Example 8, 3-(3,4-Dimethoxyphenyl)-3-{[2-({4-(4-piperidyl)-2-[2-(4-piperidyl)ethyl]butanoyl}amino)acetyl]amino}propanoic Acid Dihydrochloride] | – | -10 | -31 | 35000 | 1.6e-06 | –
4 | COc1cccc(C(CC(=O)O)NC(=O)CNC(=O)C(CCC2CCNCC2)CCC2CCNCC2)c1 (centres unmarked) [Example 10, 3-(3-Methoxyphenyl)-3-{[2-({4-(4-piperidyl)-2-[2-(4-piperidyl)ethyl]butanoyl}amino)acetyl]amino}propanoic Acid Dihydrochloride] | – | -14 | -18 | 13000 | 9.2e-07 | –
5 | O=C(O)CC(NC(=O)CNC(=O)C(CCC1CCNCC1)CCC1CCNCC1)c1cccnc1 (centres unmarked) [Example 12, 3-(3-Pyridyl)-3-{[2-({4-(4-piperidyl)-2-[2-(4-piperidyl)ethyl]butanoyl}amino)acetyl]amino}propanoic Acid Trihydrochloride] | – | -74 | -68 | 980 | 1.5e-06 | –
6 | O=C(O)CC(CCc1ccccc1)NC(=O)CNC(=O)C(CCC1CCNCC1)CCC1CCNCC1 (centres unmarked) [Example 15, 5-Phenyl-3-{[2-({4-(4-piperidyl)-2-[2-(4-piperidyl)ethyl]butanoyl}amino)acetyl]amino}pentanoic Acid Dihydrochloride] | – | -84 | -26 | 4300 | 1.5e-07 | –
7 | O=C(O)C[C@H](NC(=O)CNC(=O)C(CCC1CCNCC1)CCC1CCNCC1)C(=O)NC12CC3CC(CC(C3)C1)C2 [Example 16, (3S)-4-(1-Adamantylamino)-4-oxo-3-{[2-({4-(4-piperidyl)-2-[2-(4-piperidyl)ethyl]butanoyl}amino)acetyl]amino}butanoic Acid Dihydrochloride] | -5 | -54 | -47 | 3500 | 8.5e-07 | –
8 | O=C(O)C[C@H](NC(=O)CNC(=O)C(CCC1CCNCC1)CCC1CCNCC1)C(=O)NCCc1cccc2[nH]ccc12 [Example 17, (3S)-4-{[2-(1H-Indol-4-yl)ethyl]amino}-4-oxo-3-{[2-({4-(4-piperidyl)-2-[2-(4-piperidyl)ethyl]butanoyl}amino)acetyl]amino}butanoic Acid Dihydrochloride] | – | -19 | – | 7400 | 6e-06 | –
9 | O=C(CNC(=O)C(CCC1CCNCC1)CCC1CCNCC1)NCC(NS(=O)(=O)c1ccccc1)C(=O)O (centres unmarked) [Example 26, 2-[(Phenylsulphonyl)amino]-3-{[2-({4-(4-piperidyl)-2-[2-(4-piperidyl)ethyl]butanoyl}amino)acetyl]amino}propanoic Acid Dihydrochloride] | -41 | -77 | -68 | 440 | 5.3e-07 | -20
10 | O=C(CNC(=O)C(CCC1CCNCC1)CCC1CCNCC1)NC[C@H](NS(=O)(=O)c1ccc2ccccc2c1)C(=O)O [Example 27, (2S)-2-[(2-Naphthylsulphonyl)amino]-3-{[2-({4-(4-piperidyl)-2-[2-(4-piperidyl)ethyl]butanoyl}amino)acetyl]amino}propanoic Acid Dihydrochloride] | – | – | – | 19 | 4.4e-08 | –
11 | CCCc1ccc(S(=O)(=O)NC(CNC(=O)CNC(=O)C(CCC2CCNCC2)CCC2CCNCC2)C(=O)O)cc1 (centres unmarked) [Example 28, 2-{[(4-Propylphenyl)sulphonyl]amino}-3-{[2-({4-(4-piperidyl)-2-[2-(4-piperidyl)ethyl]butanoyl}amino)acetyl]amino}propanoic Acid Dihydrochloride] | -18 | -73 | -75 | 1500 | 1.1e-06 | –
12 | O=C(O)C[C@H](NC(=O)CNC(=O)C(CCC1CCNCC1)CCC1CCNCC1)C(=O)N1CCC(Cc2ccccc2)CC1 [Example 29, (3S)-4-oxo-4-(4-Benzylpiperidino)-3-{[2-({4-(4-piperidyl)-2-[2-(4-piperidyl)ethyl]butanoyl}amino)acetyl]amino}-butanoic Acid Dihydrochloride] | – | -35 | -23 | 13000 | 1e-05 | –
13 | O=C(CNC(=O)C(CCC1CCNCC1)CCC1CCNCC1)NCC(NS(=O)(=O)c1ccc(-c2ccccc2)cc1)C(=O)O (centres unmarked) [Example 30, 2-[([1,1-Biphenyl]-4-ylsulphonyl)amino]-3-{[2-({4-(4-piperidyl)-2-[2-(4-piperidyl)ethyl]butanoyl}amino)acetyl]amino}propanoic Acid Dihydrochloride] | -67 | – | -72 | 120 | 1.4e-07 | –
14 | O=C(CNC(=O)C(CCC1CCNCC1)CCC1CCNCC1)NCC(NS(=O)(=O)c1cccc2ccccc12)C(=O)O (centres unmarked) [Example 31, 2-[(1-Naphthylsulphonyl)amino]-3-{[2-({4-(4-piperidyl)-2-[2-(4-piperidyl)ethyl]butanoyl}amino)acetyl]amino}propanoic Acid Dihydrochloride] | -81 | – | – | 44 | 5.8e-07 | -81
15 | O=C(CNC(=O)C(CCC1CCNCC1)CCC1CCNCC1)NCC(NS(=O)(=O)c1cccs1)C(=O)O (centres unmarked) [Example 33, 2-[(2-Thienylsulphonyl)amino]-3-{[2-({4-(4-piperidyl)-2-[2-(4-piperidyl)ethyl]butanoyl}amino)acetyl]amino}propanoic Acid Dihydrochloride] | -14 | – | – | 710 | 4.9e-07 | -5
